Consider 8 molecules from ChEMBL document CHEMBL5303304, “EUbOPEN Chemogenomics Library - IncuCyte” (2023).

Common to all, as to type: toxicity, cell-based
The test system of one data set is U2OS. In words: Incucyte cell viability with U2OS. The conditions noted are these: human, 10 µM, compound concentration 10 uM.
The test system of a further data set is HEK-293T. Put plainly: Incucyte cell viability with HEK293T. The conditions noted are these: human, 10 µM, compound concentration 10 uM.
Another data set deals with Fibroblast. Put plainly: Incucyte cell viability with human fibroblast. The conditions noted are these: 10 µM, compound concentration 10 uM.

Structures are written as SMILES.
Also: unitless GR value; below 1 slowed growth and below 0 cell loss.

In the case of `CN[C@@H](C)C(=O)N[C@H]1CCCC[C@H]2CC[C@@H](C(=O)N[C@@H](c3ccccc3)c3cn(CCCCc4ccc(CCCCn5cc([C@@H](NC(=O)[C@@H]6CC[C@@H]7CCCC[C@H](NC(=O)[C@H](C)NC)C(=O)N76)c6ccccc6)nn5)cc4)nn3)N2C1=O`, the “Growth Rate” value in the data set on U2OS (0 h, replicate number 1) was -0.95; with U2OS (0 h, replicate number 2) it was -0.89; with HEK-293T (0 h, replicate number 1) it was 0.64; with HEK-293T (0 h, replicate number 2) it was 0.24; in the data set on HEK-293T (6 h, replicate number 2), 0.99; in the data set on HEK-293T (12 h, replicate number 1) it was 0.83. In addition, the “Growth Rate” value in the data set on HEK-293T (12 h, replicate number 2) came out at 0.77; in the data set on HEK-293T (18 h, replicate number 1), 0.72; in the data set with HEK-293T (18 h, replicate number 2), 0.74; in the data set with HEK-293T (24 h, replicate number 1), 0.65; with HEK-293T (24 h, replicate number 2), 0.84; in the data set on Fibroblast (0 h, replicate number 1) it was 0.3. The “Growth Rate” value came to 0.06 in the data set with Fibroblast (6 h, replicate number 2); 0.88 in the data set with Fibroblast (12 h, replicate number 2); 0.61 in the data set on Fibroblast (18 h, replicate number 1); 0.55 with Fibroblast (18 h, replicate number 2); 0.66 with Fibroblast (24 h, replicate number 2).

On to `OCC1OC(n2cnc3cc(Cl)c(Cl)cc32)C(O)C1O` (centres undefined), for which the “Growth Rate” value in the data set with U2OS (0 h, replicate number 2) was determined as 0.83; in the data set on U2OS (6 h, replicate number 2), 0.95; in the data set on U2OS (12 h, replicate number 1), 0.53; with U2OS (18 h, replicate number 1), 0.33; in the data set on U2OS (18 h, replicate number 2), 0.94; in the data set with HEK-293T (0 h, replicate number 1), 0.64. Moreover, the “Growth Rate” value came to 0.84 in the data set on HEK-293T (0 h, replicate number 2); 0.33 in the data set with HEK-293T (6 h, replicate number 1); 0.29 in the data set with HEK-293T (6 h, replicate number 2); 0.43 in the data set on HEK-293T (12 h, replicate number 1); 0.83 in the data set on HEK-293T (12 h, replicate number 2); 0.48 in the data set on HEK-293T (18 h, replicate number 1). Moreover, the “Growth Rate” value is recorded as 0.74 in the data set on HEK-293T (18 h, replicate number 2); 0.55 with HEK-293T (24 h, replicate number 1); 0.82 with HEK-293T (24 h, replicate number 2); -0.9 in the data set with Fibroblast (0 h, replicate number 1); -0.97 in the data set with Fibroblast (0 h, replicate number 2); 0.4 in the data set with Fibroblast (6 h, replicate number 2). The “Growth Rate” value is reported as 0.42 in the data set with Fibroblast (12 h, replicate number 2); 0.86 with Fibroblast (18 h, replicate number 2); 0.84 in the data set with Fibroblast (24 h, replicate number 1); 0.78 in the data set with Fibroblast (24 h, replicate number 2).

Consider `CCOC(=O)CS(=O)(=O)c1ccc([C@@H](CO)NC(=O)c2cc3c(Cl)c(Cl)c(C)cc3n2C)cc1`, for which the “Growth Rate” value in the data set on U2OS (0 h, replicate number 1) is reported as -0.21; with U2OS (6 h, replicate number 1), -0.2; in the data set with U2OS (6 h, replicate number 2) it was 1; with U2OS (12 h, replicate number 1), -0.25; with U2OS (12 h, replicate number 2) it was 0.52; with U2OS (18 h, replicate number 1), -0.31. Also, the “Growth Rate” value in the data set with U2OS (18 h, replicate number 2) is 0.87; in the data set on U2OS (24 h, replicate number 1), -0.16; in the data set with U2OS (24 h, replicate number 2), 0.97; in the data set on HEK-293T (0 h, replicate number 2), 0.13; with Fibroblast (0 h, replicate number 1) it was -1; with Fibroblast (6 h, replicate number 2) it was -1. Also, the “Growth Rate” value in the data set with Fibroblast (12 h, replicate number 1) is recorded as -0.98; in the data set on Fibroblast (12 h, replicate number 2) it was -0.95; in the data set on Fibroblast (18 h, replicate number 1), -0.91; in the data set on Fibroblast (18 h, replicate number 2), -0.85; in the data set on Fibroblast (24 h, replicate number 1) it was -0.81; in the data set with Fibroblast (24 h, replicate number 2), -0.7.

Consider `FC(F)(F)c1ccc(Nc2ncnc3cc(-c4ncccc4C(F)(F)F)ccc23)cc1` [NGD-8243], for which the “Growth Rate” value in the data set on U2OS (6 h, replicate number 2) was found to be 0.82; in the data set with U2OS (12 h, replicate number 1), 0.94; in the data set on U2OS (12 h, replicate number 2) it was 0.71; in the data set on U2OS (18 h, replicate number 1), 0.96; in the data set with U2OS (18 h, replicate number 2), 0.8; in the data set with U2OS (24 h, replicate number 1) it was 1. Further, the “Growth Rate” value in the data set with U2OS (24 h, replicate number 2) is on record as 0.88; in the data set with HEK-293T (12 h, replicate number 2), 0.89; in the data set on HEK-293T (18 h, replicate number 2), 0.92; with HEK-293T (24 h, replicate number 2), 0.88; with Fibroblast (6 h, replicate number 1), 0.97; in the data set with Fibroblast (6 h, replicate number 2) it was -1. Further, the “Growth Rate” value with Fibroblast (12 h, replicate number 1) is recorded as -1; in the data set with Fibroblast (12 h, replicate number 2), -0.24; in the data set with Fibroblast (18 h, replicate number 2), 0.27; in the data set with Fibroblast (24 h, replicate number 2), 0.37.

In the case of `O=C(O)C(F)(F)F.O=C1NC(=O)/C(=C/c2c[nH]c(=O)c(-c3ccc(N4CCNCC4)nc3)c2)S1`, the “Growth Rate” value with U2OS (0 h, replicate number 2) was -0.63; in the data set with U2OS (6 h, replicate number 1), 0.54; in the data set with U2OS (12 h, replicate number 1), 0.92; with U2OS (18 h, replicate number 1), 0.97; with U2OS (24 h, replicate number 1), 0.96; in the data set on HEK-293T (0 h, replicate number 1), 0.51. The “Growth Rate” value in the data set with HEK-293T (0 h, replicate number 2) was 0.87; with HEK-293T (12 h, replicate number 2), 0.93; in the data set with HEK-293T (18 h, replicate number 2) it was 0.96; with HEK-293T (24 h, replicate number 2) it was 0.95; in the data set with Fibroblast (0 h, replicate number 1), 0.18; in the data set with Fibroblast (6 h, replicate number 2) it was -0.44. Besides, the “Growth Rate” value is on record as -0.78 in the data set on Fibroblast (12 h, replicate number 1); 0.62 with Fibroblast (12 h, replicate number 2); -0.06 in the data set with Fibroblast (18 h, replicate number 1); 0.69 with Fibroblast (18 h, replicate number 2); 0.69 in the data set with Fibroblast (24 h, replicate number 1); 0.73 in the data set on Fibroblast (24 h, replicate number 2).

`CCOC(=O)Nc1ccc2c(c1)N(C(=O)CN(CC)CC)c1ccccc1CC2`: the “Growth Rate” value with U2OS (0 h, replicate number 1) stood at 0.1; with U2OS (6 h, replicate number 1) it was 0.94; with U2OS (12 h, replicate number 1) it was 0.75; in the data set with U2OS (24 h, replicate number 1), 0.89; with HEK-293T (0 h, replicate number 1), 0.65; in the data set with HEK-293T (6 h, replicate number 2), 0.81. For the same molecule, the “Growth Rate” value in the data set with HEK-293T (12 h, replicate number 2) stood at 0.9; in the data set with HEK-293T (18 h, replicate number 2), 0.97; with HEK-293T (24 h, replicate number 2), 0.92; in the data set with Fibroblast (0 h, replicate number 2) it was 0.9; in the data set with Fibroblast (6 h, replicate number 1), 0.29; with Fibroblast (6 h, replicate number 2) it was 0.43. Besides, the “Growth Rate” value is listed as 0.64 in the data set on Fibroblast (12 h, replicate number 1); 0.75 with Fibroblast (12 h, replicate number 2); 0.61 in the data set on Fibroblast (18 h, replicate number 1); 0.53 in the data set on Fibroblast (18 h, replicate number 2); 0.76 with Fibroblast (24 h, replicate number 1); 0.69 with Fibroblast (24 h, replicate number 2).

As for `Nc1nccc(-c2c(-c3ccc(F)cc3)ncn2C2CCN(Cc3ccon3)CC2)n1`, the “Growth Rate” value in the data set with U2OS (6 h, replicate number 1) came to 0.99; with U2OS (6 h, replicate number 2), 0.8; in the data set with U2OS (12 h, replicate number 2), 0.75; in the data set on U2OS (18 h, replicate number 2) it was 0.72; in the data set on U2OS (24 h, replicate number 2), 0.66; in the data set with HEK-293T (0 h, replicate number 1) it was 0.09. Besides, the “Growth Rate” value in the data set on HEK-293T (6 h, replicate number 2) is given as 0.91; in the data set with Fibroblast (0 h, replicate number 2), -0.11.

On to `CCn1c(-c2nc3cc(C(=O)N4CCCC(N)C4)ccc3n2C)cc2ccccc21.Cl` (centres undefined), for which the “Growth Rate” value is -0.07 with U2OS (0 h, replicate number 1); -0.69 in the data set with U2OS (0 h, replicate number 2); 0.45 in the data set on HEK-293T (6 h, replicate number 1); 0.09 in the data set with HEK-293T (6 h, replicate number 2); 0.8 with HEK-293T (12 h, replicate number 2); 0.89 with HEK-293T (18 h, replicate number 2). Further, the “Growth Rate” value is recorded as 0.87 in the data set on HEK-293T (24 h, replicate number 2); -0.88 with Fibroblast (6 h, replicate number 1); 0.59 in the data set with Fibroblast (6 h, replicate number 2); 0.96 in the data set with Fibroblast (12 h, replicate number 2); 0.78 in the data set on Fibroblast (18 h, replicate number 2); 0.77 in the data set with Fibroblast (24 h, replicate number 2).
